# Assay: Human HepG2 cell viability assay in 384 well format
# Assay type: toxicity, cell-based
# Set-up: dose 125 nL, time 70.5 hour; cytotoxicity at 70.5 h: concentration not given beside the values
# Conditions: HepG2 cells, read-out: Inhibition
compound,measurement,value
CC(=O)N(Cc1noc(C)n1)C1CCN(Cc2c(C)noc2C)C1 (configuration not stated),cytotoxicity at 70.5 h,-0.736%
Cc1nccn1CCN(C)c1cc(C(C)C)nc2ccnn12,cytotoxicity at 70.5 h,-2.26%
Cc1nc(C)c(CC(=O)N2C[C@@H](C(=O)O)[C@H](c3ccccc3C)C2)s1,cytotoxicity at 70.5 h,-17%
CC(C)NC(=O)N1CCC2(CC1)CC[C@@]1(C(=O)N(C)C)CN(C)C[C@@H]21,cytotoxicity at 70.5 h,-11.9%
CCS(=O)(=O)N1C[C@@H](c2nnc(C)o2)C[C@H]2OCC[C@H]21,cytotoxicity at 70.5 h,-9.81%
CC(=O)N(C)C1CCN(c2ncc3c(n2)CCN3c2ccccc2)C1 (configuration not stated),cytotoxicity at 70.5 h,-3.48%
Cc1ccc(C(=O)NCC(O)CN2CCCC2=O)c(C)c1 (configuration not stated),cytotoxicity at 70.5 h,-1.64%
CC(=O)NC[C@H]1COCc2nc3c(C)cccc3n21,cytotoxicity at 70.5 h,10.8%
CCc1cc(NCCCc2nc(C)no2)nc(-c2ccncc2)n1,cytotoxicity at 70.5 h,-5.75%
O=C(Nc1cccnc1-n1cncn1)N(C1CCCC1)C1CC1,cytotoxicity at 70.5 h,-7.6%
CC(CN1CCCC1=O)NC(=O)Nc1ccccc1Cn1cccn1 (configuration not stated),cytotoxicity at 70.5 h,-5.84%
O=C1CN(C(=O)C2CCCCC2)CC(O)CN1Cc1ccc(Cl)cc1 (configuration not stated),cytotoxicity at 70.5 h,-5.09%
Cc1nn(C)cc1Cn1cc(Cl)c(N)n1,cytotoxicity at 70.5 h,-1.77%
Cc1nn(C)c(N2CCCN(C)CC2)c1CNC(=O)CCC(C)C,cytotoxicity at 70.5 h,-1.98%
CN(C)C(=O)N1CCC(c2nc3ccc(N4CCCC4)cn3n2)CC1,cytotoxicity at 70.5 h,-4.23%
Cc1nn(C)cc1CN1C[C@@H]2CC[C@H](C1)N(Cc1c(C)noc1C)C2=O,cytotoxicity at 70.5 h,32.1%
CCC(CO)N(Cc1ccco1)C(=O)c1ccc(F)cc1Cl (configuration not stated),cytotoxicity at 70.5 h,-2.27%
CC(C)C1CCCN1C(=O)Nc1ccc(=O)n(C)c1 (configuration not stated),cytotoxicity at 70.5 h,15%
OC(CN1CCCCCCC1)c1ccc(F)cc1 (configuration not stated),cytotoxicity at 70.5 h,3.53%
COCCn1cc2c(n1)C(CNS(C)(=O)=O)OCC2 (configuration not stated),cytotoxicity at 70.5 h,-2.51%
O=C(CC1CCC1)N1CCCC(CO)(CC2CC2)C1 (configuration not stated),cytotoxicity at 70.5 h,-7.78%
CCN(C(=O)CN1CCN(CC(C)O)CC1)C1=CCCCC1 (configuration not stated),cytotoxicity at 70.5 h,-3.37%
Cc1ccc2oc(=O)n(CC(=O)N3CCC4(CC3)CN(C)C(=O)O4)c2c1,cytotoxicity at 70.5 h,13.2%
CCCn1cc(-c2cc(-c3c[nH]cn3)c(C#N)c(N)n2)c(C)n1,cytotoxicity at 70.5 h,3.58%
COC(=O)CCn1ccc(=O)c2ccc(OC)cc21,cytotoxicity at 70.5 h,19.7%
Cc1ccc(CN2C[C@@H]3[C@@H](C(=O)NCC(C)C)CCS(=O)(=O)[C@@H]3C2)cc1,cytotoxicity at 70.5 h,-1.42%
O=C(NCc1cccnc1-n1cncn1)c1cc(Cl)ccn1,cytotoxicity at 70.5 h,12.4%
FC(F)C(F)(F)COCc1ncnn1-c1ccc2c(c1)OCO2,cytotoxicity at 70.5 h,6.96%
Cc1nc(C)c(CNC(=O)NC(c2nnc3n2CCC3)C(C)C)s1 (configuration not stated),cytotoxicity at 70.5 h,-1.59%
CN1CCN(Cc2cccnc2)C2(CCN(c3ncccn3)C2)C1=O (configuration not stated),cytotoxicity at 70.5 h,-5.32%
Cc1cc(CN2CCN(C(=O)NC(C)c3cccs3)CC2)on1 (configuration not stated),cytotoxicity at 70.5 h,-5.41%
CN1CCCC(c2cncc(C(=O)NCc3ccccc3Cl)n2)C1 (configuration not stated),cytotoxicity at 70.5 h,-7.68%
CC(C)C(C(=O)N1CCCN(c2cccnn2)CC1)n1cncn1 (configuration not stated),cytotoxicity at 70.5 h,4.13%
OC(CNC1CCOCC1)c1cccc(OCc2ccccc2)c1 (configuration not stated),cytotoxicity at 70.5 h,-10.5%
COCc1ccccc1NC(=O)c1ccoc1,cytotoxicity at 70.5 h,-15%
CCCc1n[nH]c(C2CN(CC(=O)N(C)Cc3ccco3)CCO2)n1 (configuration not stated),cytotoxicity at 70.5 h,-6.63%
CNC(=O)c1csc(-c2cccnc2)n1,cytotoxicity at 70.5 h,2.96%
Cc1cc(NCCc2nnc(N)s2)nc(-c2ccccc2)n1,cytotoxicity at 70.5 h,-2.76%
COc1ncccc1CN1C[C@@H]2COC[C@]2(CNS(C)(=O)=O)C1,cytotoxicity at 70.5 h,-13.2%
COc1cc(Br)c(CNC(C)c2nnc3n2CCC3)cc1OC (configuration not stated),cytotoxicity at 70.5 h,10.6%
COc1ccc(Br)cc1CN(C)C(C)c1nc(C(C)C)no1 (configuration not stated),cytotoxicity at 70.5 h,-19.6%
Cc1ccccc1N1CCN(C(=O)CSc2ccncc2)CC1=O,cytotoxicity at 70.5 h,-8.48%
c1cncc(CNc2ccc3nc(C4CCNCC4)nn3c2)c1,cytotoxicity at 70.5 h,-4.24%
CCc1nnc(SC2CCCN(c3cnn(C)c3)C2=O)n1C (configuration not stated),cytotoxicity at 70.5 h,-12.6%
Cc1noc(C)c1CNCC1CNc2ccnn2C1 (configuration not stated),cytotoxicity at 70.5 h,-7.43%
CCc1nnc2n1CCN(C(=O)CN(CC)CC)C2,cytotoxicity at 70.5 h,44.6%
CCN(C1CCN(C(=O)c2cccc(Cl)c2)CC1)S(C)(=O)=O,cytotoxicity at 70.5 h,-6.65%
CC(C)(C)CC(=O)NC[C@H]1OC[C@@H](NCc2ccccn2)[C@@H]1O,cytotoxicity at 70.5 h,-10.1%
O=C(CCC1CCCC1)NCCn1nc(C2CCNC2)c2cccnc21 (configuration not stated),cytotoxicity at 70.5 h,-14.1%
CC(C)C(=O)NCc1ccnc(Oc2ccc(F)cc2)c1,cytotoxicity at 70.5 h,-5.04%
C[C@@H]1C[C@H](C(F)(F)F)n2nc(C3CCN(S(C)(=O)=O)CC3)cc2N1,cytotoxicity at 70.5 h,-2.94%
CCNC(=O)NC1CCCN(c2ccc(C)cc2)C1=O (configuration not stated),cytotoxicity at 70.5 h,0.44%
O=C(Cn1cc(C(=O)O)cn1)Nc1c(Cl)cccc1Cl,cytotoxicity at 70.5 h,-5.99%
CN(CCc1ccccc1)Cc1cnc(C2(C)CCCCO2)nc1 (configuration not stated),cytotoxicity at 70.5 h,1.38%
CC(C)CN1Cc2c(C(=O)N(C)C)ncn2-c2ccccc2S1(=O)=O,cytotoxicity at 70.5 h,-6.58%
CC(C)n1nc(CNc2ncccn2)c2c1CN(C)CC2,cytotoxicity at 70.5 h,-6%
O=C(NCc1ccco1)N1CCC(n2cc(-c3ccccn3)nn2)CC1,cytotoxicity at 70.5 h,0.624%
